In patent US20110236874A1, “METHOD FOR FORMATION OF RENAL TUBULES” (priority 2008, published 2011):
Entries after “also recorded” stand apart in the source; their conditions may differ.

Tests used:
[1] = system: primary rabbit renal proximal tubule cells; settings: added to confluent rabbit cell cultures for at least 72 hours; TGF-β1 10 ng/ml, EGF 1 nM, RA 0.1 μM; cited from earlier work
[2] = system: Human proximal tubules formed on 2D solid surfaces; test: Transport assays with fluorescent substrates in tubules formed on 2D solid surfaces; type: cell-based; settings: 20 h incubation, lucifer yellow 80 μM, rhodamine 123 10 μM, 5,6-carboxyfluorescein 5 μM, BODIPY FL verapamil 5 μM
Protocol: Transport assays: Tubules formed 1-2 weeks after seeding were cultivated in phenol red-free medium supplemented with 80 μM of lucifer yellow (Sigma Aldrich Chemical Corp, Singapore), 10 μM of rhodamine 123 (Invitrogen, Singapore), 5 μM of 5,6-carboxydichlorofluorescein diacetate (5,6-carboxyfluorescein) (Invitrogen) or 5 μM of BODIPY FL verapmil (Invitrogen). Tubules were fixed after 20 h of incubation, and subsequently stained with 4′,6′-diamidino-2′-phenylindole (DAPI).
FIG. 11: Organic anion transport. Human proximal tubules formed on 2D solid surfaces were incubated for 20 h with the organic anions lucifer yellow (A, B; green), rhodamine 123 (C; red), 5,6-carboxyfluorescein (D; green) and BODIPY FL verapamil (F; green). Tubules are fixed before imaging, and the cell nuclei are counterstained with DAPI (blue). […] The arrowhead points to a region that is enlarged in the inset. The DAPI-stained nuclei of the outer cell layer are on the right in the inset. […] Scale bars: 100 μm.

[3] = system: primary human renal proximal tubule cells (HPTCs); test: TGF-β1 treatment of confluent HPTC monolayers in complete HPTC medium; type: cell-based
Protocol: Cell culture: Different batches of HPTCs were obtained from ScienCell Research Laboratories (Carlsbad, Calif., USA). Cells were cultivated in basal epithelial cell medium supplemented with 2% fetal bovine serum (FBS) and 1% epithelial cell growth supplement (ScienCell Research Laboratories). In some experiments, TGF-β1 (R&D Systems, Minneapolis, Minn., USA) was added at a concentration of 10 ng/ml after monolayer formation.
FIG. 17: Growth factor expression and effects of TGF-β1. (A) The expression levels of TGF-β1, α-SMA, LIF, FGF2, KGF and HGF are monitored over a period of 4 weeks. […] Panels B-D show the cells treated for 3 days with 10 ng/ml TGF-β1 after monolayer formation. […] Scale bar: 500
A fourth experimental series was performed with our HPTC medium containing all supplements including FBS. HPTCs were grown to confluency and then treated with TGF-β1 (10 ng/ml; same concentration as used for the rabbit cells). After three days massive cords and aggregates of cells with an elongated, myofibroblastic morphology had formed in 6/6 wells. Although in the complete HPTC medium with FBS, cords and cell aggregates also form without the addition of extra TGF-β1, such structures formed more consistently after addition of TGF-β1. […]

[4] = system: primary human renal proximal tubule cells (HPTCs); test: TGF-β1 treatment of confluent HPTC patches in Humes basal medium; type: cell-based; settings: 10 ng/ml TGF-β1 on confluent patches in Humes basal medium
Protocol: The Humes et al. method used primary rabbit proximal tubule cells. The references indicate three factors are necessary in the growth medium for 2D tubulogenesis: (i) transforming growth factor (TGF)-β1; (ii) epidermal growth factor (EGF); and all-trans retinoic acid (RA). The method involves cultivation of primary rabbit renal proximal tubule cells in the following medium: Dulbecco's modified Eagle's:Ham's F-12 media (1:1, v/v) containing L-glutamine, penicillin, streptomycin, 50 nM hydrocortisone, 5 μg/ml of insulin, and 5 μg/ml of transferrin, referred to herein as Humes basal medium.
In a second set of experiments cells were again cultivated in Humes basal medium. In accordance with the previous results, massive cell death occurred although some cells survived and formed some confluent patches after 2 weeks. By this time cell growth was very slow and overall confluency could not be achieved. However, the confluent patches were treated with 10 ng/ml TGF-β1 in accordance with the Humes et al. method.

Compound	structures formed from confluent monolayer [1]	localisation of the fluorescent substrate after incubation (transport across tubular epithelium) [2]	further results
CC1=C(/C=C/C(C)=C/C=C/C(C)=C/C(=O)O)C(C)(C)CCC1 [RA, all-trans retinoic acid]	no dramatic effects on the monolayer		
BODIPY FL verapamil		enriched in the cytoplasm of tubular and monolayer cells	localisation of the fluorescent substrate after incubation (transport across tubular epithelium) ([2]; listed as BOPIPY FL verapamil): became enriched within the cells
TGF-β1: transforming growth factor β1 (R&D Systems), 10 ng/ml	formation of solid aggregates of adherent cells (no lumen)		wells with massive cords and aggregates of cells of myofibroblastic morphology ([3]; 10 ng/ml TGF-β1, after three days, complete HPTC medium with FBS): 6/6; effect on the monolayer ([3]; 10 ng/ml TGF-β1 for 3 days after monolayer formation): induces rearrangements leading to the formation of condensed stripes of cells and areas devoid of cells; also recorded: rearrangement of the monolayer into a condensed stripe of cells and to the formation of cell aggregates; effect on the monolayer, cord and tubule formation [4]: no obvious effect on the monolayer and no cord and tubule formation was observed
lucifer yellow		the lumen is strongly labeled; also recorded: became enriched in the tubular lumen	
EGF: epidermal growth factor (NSDSECPLSHDGYCLHDGVCMYIEALDKYACNCVVGYIGERCQYRDLKWWELR; UniProt P01133 971-1023, looked up)	no dramatic effects on the monolayer		
5,6-carboxydichlorofluorescein diacetate [5,6-carboxyfluorescein]		enriched in the tubular interior; also recorded: became enriched in the tubular lumen	
rhodamine 123		became enriched in the tubular lumen	localisation of the fluorescent substrate after incubation (transport across tubular epithelium) ([2]; listed as Rhodamine 123): enriched in the tubular lumen
